For data set [1], the target named is BSEP (Homo sapiens, UniProt O95342). The data set can be described thus: in vitro.
The target in data set [2] is T1, BSEP (Canis lupus familiaris, UniProt B8K1W2).
T1 sequence (B8K1W2 1-1325): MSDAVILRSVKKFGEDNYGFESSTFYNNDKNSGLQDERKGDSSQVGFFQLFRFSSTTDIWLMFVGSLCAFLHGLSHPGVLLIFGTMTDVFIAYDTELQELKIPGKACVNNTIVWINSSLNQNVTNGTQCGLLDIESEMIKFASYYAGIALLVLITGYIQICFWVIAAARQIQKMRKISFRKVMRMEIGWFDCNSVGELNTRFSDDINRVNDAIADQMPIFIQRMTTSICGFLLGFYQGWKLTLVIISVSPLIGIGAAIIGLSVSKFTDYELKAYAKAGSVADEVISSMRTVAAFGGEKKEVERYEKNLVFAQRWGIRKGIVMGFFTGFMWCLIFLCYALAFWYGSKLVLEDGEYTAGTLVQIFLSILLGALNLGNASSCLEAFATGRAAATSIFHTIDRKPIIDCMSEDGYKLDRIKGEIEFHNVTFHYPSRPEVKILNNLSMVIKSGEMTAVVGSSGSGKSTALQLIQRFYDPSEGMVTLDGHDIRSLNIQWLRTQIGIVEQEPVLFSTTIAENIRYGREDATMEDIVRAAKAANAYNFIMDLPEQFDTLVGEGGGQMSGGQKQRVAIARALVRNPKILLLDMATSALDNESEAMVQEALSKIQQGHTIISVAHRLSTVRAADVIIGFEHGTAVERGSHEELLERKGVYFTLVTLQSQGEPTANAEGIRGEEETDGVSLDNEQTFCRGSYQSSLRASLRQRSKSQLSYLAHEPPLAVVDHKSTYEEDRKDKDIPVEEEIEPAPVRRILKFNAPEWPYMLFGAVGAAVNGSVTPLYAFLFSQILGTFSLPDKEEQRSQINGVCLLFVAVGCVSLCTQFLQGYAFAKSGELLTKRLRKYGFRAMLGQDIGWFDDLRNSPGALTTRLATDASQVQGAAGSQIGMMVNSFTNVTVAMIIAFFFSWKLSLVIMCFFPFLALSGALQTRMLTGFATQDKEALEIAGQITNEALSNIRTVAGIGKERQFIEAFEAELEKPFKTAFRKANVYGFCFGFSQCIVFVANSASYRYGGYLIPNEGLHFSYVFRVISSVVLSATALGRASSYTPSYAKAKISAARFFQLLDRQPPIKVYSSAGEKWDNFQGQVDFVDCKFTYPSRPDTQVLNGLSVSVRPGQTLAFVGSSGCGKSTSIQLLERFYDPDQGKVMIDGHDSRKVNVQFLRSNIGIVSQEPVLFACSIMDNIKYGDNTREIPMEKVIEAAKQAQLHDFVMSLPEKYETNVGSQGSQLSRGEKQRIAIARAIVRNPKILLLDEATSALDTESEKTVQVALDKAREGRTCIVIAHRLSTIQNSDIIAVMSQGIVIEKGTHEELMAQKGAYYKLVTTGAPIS
Kind of data set: Inhibition of BSEP activity (transport of taurocholate) in dog hepatocytes.

The target of data set [3] is T2, BSEP (Mus musculus, UniProt Q9QY30).
T2 sequence (Q9QY30 1-1321): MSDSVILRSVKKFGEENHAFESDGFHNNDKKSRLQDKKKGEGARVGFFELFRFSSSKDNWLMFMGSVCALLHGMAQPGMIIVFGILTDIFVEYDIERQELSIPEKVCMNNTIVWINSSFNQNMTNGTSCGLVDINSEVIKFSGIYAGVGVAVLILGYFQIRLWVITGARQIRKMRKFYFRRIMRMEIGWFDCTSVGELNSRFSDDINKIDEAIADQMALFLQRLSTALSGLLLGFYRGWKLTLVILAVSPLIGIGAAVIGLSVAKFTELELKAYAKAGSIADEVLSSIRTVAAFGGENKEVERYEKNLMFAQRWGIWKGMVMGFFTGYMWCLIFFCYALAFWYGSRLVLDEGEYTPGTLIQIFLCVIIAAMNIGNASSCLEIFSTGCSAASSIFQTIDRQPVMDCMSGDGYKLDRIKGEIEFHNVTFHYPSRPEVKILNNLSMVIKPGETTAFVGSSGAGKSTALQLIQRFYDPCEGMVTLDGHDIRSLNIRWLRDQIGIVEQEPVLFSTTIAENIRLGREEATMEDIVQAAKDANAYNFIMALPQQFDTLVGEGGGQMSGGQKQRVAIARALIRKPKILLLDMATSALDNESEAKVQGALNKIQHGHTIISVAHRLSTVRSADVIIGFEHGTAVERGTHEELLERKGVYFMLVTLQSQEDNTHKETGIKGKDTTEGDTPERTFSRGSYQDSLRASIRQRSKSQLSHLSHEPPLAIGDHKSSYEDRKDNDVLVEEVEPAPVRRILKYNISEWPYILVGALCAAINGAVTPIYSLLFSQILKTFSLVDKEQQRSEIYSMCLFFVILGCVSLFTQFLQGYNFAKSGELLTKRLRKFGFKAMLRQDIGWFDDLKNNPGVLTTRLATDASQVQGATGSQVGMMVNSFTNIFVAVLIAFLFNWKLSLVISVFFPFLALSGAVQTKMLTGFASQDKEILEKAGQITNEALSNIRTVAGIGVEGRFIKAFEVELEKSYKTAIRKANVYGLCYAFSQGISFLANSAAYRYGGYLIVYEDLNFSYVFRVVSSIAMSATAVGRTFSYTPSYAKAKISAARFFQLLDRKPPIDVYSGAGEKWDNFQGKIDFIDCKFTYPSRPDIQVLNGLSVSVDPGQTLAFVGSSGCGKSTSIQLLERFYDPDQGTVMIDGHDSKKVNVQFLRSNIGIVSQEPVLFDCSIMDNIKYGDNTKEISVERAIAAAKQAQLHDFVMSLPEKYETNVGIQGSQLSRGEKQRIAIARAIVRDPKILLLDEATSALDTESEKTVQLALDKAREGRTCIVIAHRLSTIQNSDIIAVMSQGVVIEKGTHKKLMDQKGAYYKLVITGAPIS
Kind of data set: Inhibition of BSEP activity (transport of taurocholate) in mouse hepatocytes.

Setting [4] is: hepatocytes in suspension, probe glycocholate.
[5] abbreviates: hepatocytes in suspension, probe taurocholate.

Here are results for eleven molecules from patent US10481149B2.

Like-named read-outs stand apart in the source and are kept apart here.

Chain of BSEP (Homo sapiens, UniProt O95342) (O95342 whole entry): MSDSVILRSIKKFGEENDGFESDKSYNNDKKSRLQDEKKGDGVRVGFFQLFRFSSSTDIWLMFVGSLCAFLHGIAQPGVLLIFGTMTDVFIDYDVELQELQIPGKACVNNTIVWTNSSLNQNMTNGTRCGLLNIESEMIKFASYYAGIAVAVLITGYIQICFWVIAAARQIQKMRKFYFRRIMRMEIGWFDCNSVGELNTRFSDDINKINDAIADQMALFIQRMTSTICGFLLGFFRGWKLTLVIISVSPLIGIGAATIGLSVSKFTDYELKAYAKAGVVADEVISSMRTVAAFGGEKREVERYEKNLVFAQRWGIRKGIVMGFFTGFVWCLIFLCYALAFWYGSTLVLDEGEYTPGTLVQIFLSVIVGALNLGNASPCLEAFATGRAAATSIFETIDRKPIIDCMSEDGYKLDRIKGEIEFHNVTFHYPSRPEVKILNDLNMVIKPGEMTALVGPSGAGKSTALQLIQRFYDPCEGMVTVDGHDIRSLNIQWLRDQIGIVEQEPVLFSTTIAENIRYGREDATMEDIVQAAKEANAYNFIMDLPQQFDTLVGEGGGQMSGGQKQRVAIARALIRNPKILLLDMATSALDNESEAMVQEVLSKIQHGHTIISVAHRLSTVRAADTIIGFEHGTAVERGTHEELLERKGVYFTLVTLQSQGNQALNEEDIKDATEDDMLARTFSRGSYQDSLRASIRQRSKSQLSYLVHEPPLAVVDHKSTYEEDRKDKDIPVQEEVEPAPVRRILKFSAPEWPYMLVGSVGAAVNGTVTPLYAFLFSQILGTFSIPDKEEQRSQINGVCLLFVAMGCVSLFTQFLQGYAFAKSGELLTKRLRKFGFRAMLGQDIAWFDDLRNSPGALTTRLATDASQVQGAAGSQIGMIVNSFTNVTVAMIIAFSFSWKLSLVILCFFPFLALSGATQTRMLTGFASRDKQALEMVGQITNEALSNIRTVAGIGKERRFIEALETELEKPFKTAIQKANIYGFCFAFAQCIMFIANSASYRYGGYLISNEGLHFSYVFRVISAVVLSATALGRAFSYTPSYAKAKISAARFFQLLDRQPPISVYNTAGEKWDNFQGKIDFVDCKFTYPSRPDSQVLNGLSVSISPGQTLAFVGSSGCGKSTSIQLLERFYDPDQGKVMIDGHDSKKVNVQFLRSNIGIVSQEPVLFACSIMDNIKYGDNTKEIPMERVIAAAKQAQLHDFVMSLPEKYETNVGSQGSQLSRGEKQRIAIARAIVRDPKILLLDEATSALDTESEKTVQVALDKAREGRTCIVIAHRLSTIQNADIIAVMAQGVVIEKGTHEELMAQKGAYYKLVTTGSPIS

The term inhibition denotes the percentage by which the read-out fell short of the control. Low readings indicate a weak effect, high ones a strong effect. `COC(=O)N[C@H](C(=O)N[C@@H](Cc1ccccc1)[C@@H](O)CN(Cc1ccc(-c2ccccn2)cc1)NC(=O)[C@@H](NC(=O)OC)C(C)(C)C)C(C)(C)C` [Atazanavir, atazanavir]: the inhibition at 1 h, 1 μM on BSEP [1] (setting [4]), at BSEP [2] (setting [5]) and at BSEP [3] (setting [5]) was under 50% each time. Further, the inhibition at 1 h, 10 μM at BSEP [1] (setting [4]) was over 50%; against BSEP [2] (setting [5]) it was over 50%; at BSEP [3] (setting [5]), under 50%.
With `C[C@@H](Oc1cc(-c2cnn(C3CCNCC3)c2)cnc1N)c1c(Cl)ccc(F)c1Cl` [Crizotinib, crizotinib], the inhibition at 1 h, 1 μM at BSEP [1] (setting [4]), at BSEP [2] (setting [5]) and against BSEP [3] (setting [5]) was under 50% each time. For the same molecule, the results for the inhibition at 1 h, 10 μM against BSEP [1] (setting [4]), against BSEP [2] (setting [5]) and on BSEP [3] (setting [5]) were over 50%, over 50% and under 50%, respectively.
With `OC(Cn1cncn1)(Cn1cncn1)c1ccc(F)cc1F` [Fluconazole, fluconazole], the inhibition at 1 h, 1 μM against BSEP [1] (setting [4]), against BSEP [2] (setting [5]) and against BSEP [3] (setting [5]) was under 50% in each case. For the same molecule, the inhibition at 1 h, 10 μM on BSEP [1] (setting [4]), against BSEP [2] (setting [5]) and against BSEP [3] (setting [5]) was under 50% each time.
Take `CC(=O)N1CCN(c2ccc(OCC3COC(Cn4ccnc4)(c4ccc(Cl)cc4Cl)O3)cc2)CC1` (stereo not drawn) [Ketoconazole, ketoconazole]: the inhibition at 1 h, 1 μM at BSEP [1] (setting [4]), at BSEP [2] (setting [5]) and on BSEP [3] (setting [5]) was under 50% throughout. Further, the inhibition at 1 h, 10 μM on BSEP [1] (setting [4]), against BSEP [2] (setting [5]) and against BSEP [3] (setting [5]) was under 50% in each case.
For `Cc1c(O)cccc1C(=O)N[C@@H](CSc1ccccc1)[C@H](O)CN1C[C@H]2CCCC[C@H]2C[C@H]1C(=O)NC(C)(C)C` [Nelfinavir, nelfinavir], the inhibition at 1 h, 1 μM on BSEP [1] (setting [4]), against BSEP [2] (setting [5]) and on BSEP [3] (setting [5]) was under 50% throughout. Besides, the inhibition at 1 h, 10 μM at BSEP [1] (setting [4]) was over 50%; at BSEP [2] (setting [5]) it was over 50%; on BSEP [3] (setting [5]), under 50%.
With `CC(C)NCC(O)COc1cccc2ccccc12` (stereo not drawn) [Propranolol, propranolol], the inhibition at 1 h, 1 μM at BSEP [1] (setting [4]), at BSEP [2] (setting [5]) and against BSEP [3] (setting [5]) was under 50% in each case. For the same molecule, the inhibition at 1 h, 10 μM against BSEP [1] (setting [4]), on BSEP [2] (setting [5]) and against BSEP [3] (setting [5]) was under 50% each time.
For the molecule `O=c1c(O)c(-c2ccc(O)c(O)c2)oc2cc(O)cc(O)c12` [Quercetin, quercetin], the inhibition at 1 h, 1 μM at BSEP [1] (setting [4]), on BSEP [2] (setting [5]) and on BSEP [3] (setting [5]) was under 50% each time. Further, the inhibition at 1 h, 10 μM is under 50% against BSEP [1] (setting [4]), over 50% on BSEP [2] (setting [5]) and under 50% against BSEP [3] (setting [5]).
`C=C[C@H]1C[N@@]2CC[C@H]1C[C@@H]2[C@@H](O)c1ccnc2ccc(OC)cc12` [Quinidine, quinidine]: the inhibition at 1 h, 1 μM against BSEP [1] (setting [4]), against BSEP [2] (setting [5]) and against BSEP [3] (setting [5]) was under 50% each time. Further, the inhibition at 1 h, 10 μM against BSEP [1] (setting [4]), at BSEP [2] (setting [5]) and against BSEP [3] (setting [5]) was under 50% each time.
Consider `S=P(N1CC1)(N1CC1)N1CC1` [Thiotepa, thiotepa], for which the inhibition at 1 h, 1 μM against BSEP [1], against BSEP [2] and at BSEP [3] was under 50% in each case. Besides, the inhibition at 1 h, 10 μM on BSEP [1], against BSEP [2] and against BSEP [3] was under 50% each time.
For the molecule `Cc1c(C)c2c(c(C)c1O)CCC(C)(COc1ccc(CC3SC(=O)NC3=O)cc1)O2` (stereo not drawn) [Troglitazone, troglitazone], the results for the inhibition at 1 h, 1 μM on BSEP [1] (setting [4]), on BSEP [2] (setting [5]) and at BSEP [3] (setting [5]) were over 50%, under 50% and under 50%, respectively. Also, the inhibition at 1 h, 10 μM against BSEP [1] (setting [4]) was over 50%; against BSEP [2] (setting [5]), over 50%; against BSEP [3] (setting [5]) it was under 50%.
As to `CC[C@]1(O)C[C@@H]2CN(CCc3c([nH]c4ccccc34)[C@@](C(=O)OC)(c3cc4c(cc3OC)N(C)[C@H]3[C@@](O)(C(=O)OC)[C@H](OC(C)=O)[C@]5(CC)C=CCN6CC[C@]43[C@@H]65)C2)C1` [Vinblastine, vinblastine], the inhibition at 1 h, 1 μM against BSEP [1] (setting [4]), against BSEP [2] (setting [5]) and against BSEP [3] (setting [5]) was under 50% each time. The inhibition at 1 h, 10 μM is over 50% at BSEP [1] (setting [4]), under 50% on BSEP [2] (setting [5]) and under 50% at BSEP [3] (setting [5]).
